Consider ten molecules from article PMC12621043, “Un-LOK-ing a New Approach for Conformational Selective Targeting of STK10 (LOK)” (ACS Medicinal Chemistry Letters, 2025).

Assay [1] has as its target T1, AAK1 (AAK1A) (Homo sapiens, UniProt Q2M2I8).
T1 construct: purchased in-house DSF kinase panel (SGC-style construct names; the trailing letter is the construct ID)
Nature of the assay: DSF Tm panel. It counts as binding. The note with it: 10 μM compound.

Assay [2] has as its target T2, PCTK1A (Homo sapiens, UniProt Q00536).
T2 construct: purchased in-house DSF kinase panel (SGC-style construct names; the trailing letter is the construct ID)
Description: DSF Tm panel. It counts as binding. The note with it: 10 μM compound.

Assay [3] concerns the target T3, ABL1 (ABL1A) (Homo sapiens, UniProt P00519).
T3 construct: purchased in-house DSF kinase panel (SGC-style construct names; the trailing letter is the construct ID)
T3 sequence (P00519 229-512): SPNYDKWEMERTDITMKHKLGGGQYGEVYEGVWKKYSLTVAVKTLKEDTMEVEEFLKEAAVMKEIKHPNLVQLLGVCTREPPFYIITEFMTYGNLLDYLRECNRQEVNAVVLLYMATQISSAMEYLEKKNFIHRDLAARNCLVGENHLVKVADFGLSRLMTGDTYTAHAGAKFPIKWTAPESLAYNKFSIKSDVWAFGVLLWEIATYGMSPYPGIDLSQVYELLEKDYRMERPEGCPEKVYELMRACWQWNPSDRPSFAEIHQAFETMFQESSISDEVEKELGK
Nature of the assay: DSF Tm panel. Particulars: 10 μM compound. Format: binding.

The target of assay [4] is T4, MAP2K1A (Homo sapiens, UniProt Q02750).
T4 construct: purchased in-house DSF kinase panel (SGC-style construct names; the trailing letter is the construct ID)
T4 sequence (Q02750 68-361): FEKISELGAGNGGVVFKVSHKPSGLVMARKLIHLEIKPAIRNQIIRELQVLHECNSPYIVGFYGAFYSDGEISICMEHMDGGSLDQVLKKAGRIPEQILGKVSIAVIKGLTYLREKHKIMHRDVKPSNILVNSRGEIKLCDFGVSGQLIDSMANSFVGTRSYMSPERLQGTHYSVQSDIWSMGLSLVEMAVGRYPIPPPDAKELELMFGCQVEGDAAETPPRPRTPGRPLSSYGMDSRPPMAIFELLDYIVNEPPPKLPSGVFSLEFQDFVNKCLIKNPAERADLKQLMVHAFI
Nature of the assay: DSF Tm panel. It counts as binding. The note with it: 10 μM compound.

In assay [5] the target is T5, GAKA (Homo sapiens, UniProt O14976).
T5 construct: purchased in-house DSF kinase panel (SGC-style construct names; the trailing letter is the construct ID)
T5 sequence (O14976 14-351): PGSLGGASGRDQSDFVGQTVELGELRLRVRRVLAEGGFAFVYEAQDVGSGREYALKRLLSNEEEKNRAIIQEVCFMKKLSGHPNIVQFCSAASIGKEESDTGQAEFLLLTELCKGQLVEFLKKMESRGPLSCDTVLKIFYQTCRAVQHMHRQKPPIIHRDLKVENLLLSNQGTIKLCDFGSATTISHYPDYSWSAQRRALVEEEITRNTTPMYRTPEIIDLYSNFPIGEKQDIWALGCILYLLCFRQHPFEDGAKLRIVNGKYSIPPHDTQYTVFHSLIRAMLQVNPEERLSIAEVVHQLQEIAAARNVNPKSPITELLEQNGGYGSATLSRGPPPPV
Description: DSF Tm panel. It counts as binding. Particulars: 10 μM compound.

In assay [6] the target is T6, CLK1A (Homo sapiens, UniProt P49759).
T6 construct: purchased in-house DSF kinase panel (SGC-style construct names; the trailing letter is the construct ID)
T6 sequence (P49759 148-484): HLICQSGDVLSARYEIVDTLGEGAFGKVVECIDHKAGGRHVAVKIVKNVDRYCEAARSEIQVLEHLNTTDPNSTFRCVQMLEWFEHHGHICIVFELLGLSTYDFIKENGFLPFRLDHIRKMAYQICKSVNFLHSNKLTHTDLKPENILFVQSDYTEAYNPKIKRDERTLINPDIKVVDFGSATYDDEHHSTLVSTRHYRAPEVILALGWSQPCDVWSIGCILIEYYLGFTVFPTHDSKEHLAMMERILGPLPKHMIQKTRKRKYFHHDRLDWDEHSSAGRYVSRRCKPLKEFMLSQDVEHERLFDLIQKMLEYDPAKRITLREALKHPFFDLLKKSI
Description: DSF Tm panel. Format: binding. The note with it: 10 μM compound.

In assay [7] the target is T7, STK10 (Homo sapiens, UniProt O94804).
T7 construct: purchased in-house DSF kinase panel (SGC-style construct names; the trailing letter is the construct ID)
T7 sequence (O94804 18-317 limits assumed): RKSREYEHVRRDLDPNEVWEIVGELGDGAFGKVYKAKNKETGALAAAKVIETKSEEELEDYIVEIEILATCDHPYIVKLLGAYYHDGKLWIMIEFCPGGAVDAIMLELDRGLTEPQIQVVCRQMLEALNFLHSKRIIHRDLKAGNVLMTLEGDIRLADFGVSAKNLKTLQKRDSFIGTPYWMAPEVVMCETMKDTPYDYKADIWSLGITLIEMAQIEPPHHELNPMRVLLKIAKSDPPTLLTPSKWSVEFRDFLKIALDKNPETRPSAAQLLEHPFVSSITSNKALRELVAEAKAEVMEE
Nature of the assay: DSF Tm panel. Format: binding. Particulars: 10 μM compound.

In assay [8] the target is T8, NEK1A (Homo sapiens, UniProt Q96PY6).
T8 construct: purchased in-house DSF kinase panel (SGC-style construct names; the trailing letter is the construct ID)
T8 sequence (Q96PY6 1-328): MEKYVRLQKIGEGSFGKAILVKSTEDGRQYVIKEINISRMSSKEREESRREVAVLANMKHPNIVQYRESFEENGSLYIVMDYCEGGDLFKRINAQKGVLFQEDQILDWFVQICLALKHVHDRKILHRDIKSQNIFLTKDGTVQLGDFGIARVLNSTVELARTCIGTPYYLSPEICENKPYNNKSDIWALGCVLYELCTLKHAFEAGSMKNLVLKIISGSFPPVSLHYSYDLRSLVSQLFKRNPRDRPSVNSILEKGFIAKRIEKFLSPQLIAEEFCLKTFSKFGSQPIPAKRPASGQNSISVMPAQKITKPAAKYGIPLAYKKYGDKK
Description: DSF Tm panel. Format: binding. Particulars: 10 μM compound.

The target in assay [9] is T9, MST3A (Homo sapiens, UniProt Q9Y6E0).
T9 construct: purchased in-house DSF kinase panel (SGC-style construct names; the trailing letter is the construct ID)
T9 sequence (Q9Y6E0 whole entry): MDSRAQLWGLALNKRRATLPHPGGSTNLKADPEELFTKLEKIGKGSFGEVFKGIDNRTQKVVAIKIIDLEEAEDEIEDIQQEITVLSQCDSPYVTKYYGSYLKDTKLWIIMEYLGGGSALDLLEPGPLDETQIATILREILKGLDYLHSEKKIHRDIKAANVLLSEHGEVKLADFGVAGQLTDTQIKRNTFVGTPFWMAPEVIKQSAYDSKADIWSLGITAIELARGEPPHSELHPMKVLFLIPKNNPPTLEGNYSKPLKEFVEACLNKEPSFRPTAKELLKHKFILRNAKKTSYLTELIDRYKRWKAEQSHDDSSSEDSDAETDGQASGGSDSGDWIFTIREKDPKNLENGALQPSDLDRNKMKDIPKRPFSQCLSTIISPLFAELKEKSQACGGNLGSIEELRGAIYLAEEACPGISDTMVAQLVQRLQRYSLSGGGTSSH
Nature of the assay: DSF Tm panel. Format: binding. Particulars: 10 μM compound.

The target of assay [10] is T10, MST4A (Homo sapiens, UniProt Q9P289).
T10 construct: purchased in-house DSF kinase panel (SGC-style construct names; the trailing letter is the construct ID)
T10 sequence (Q9P289 1-300): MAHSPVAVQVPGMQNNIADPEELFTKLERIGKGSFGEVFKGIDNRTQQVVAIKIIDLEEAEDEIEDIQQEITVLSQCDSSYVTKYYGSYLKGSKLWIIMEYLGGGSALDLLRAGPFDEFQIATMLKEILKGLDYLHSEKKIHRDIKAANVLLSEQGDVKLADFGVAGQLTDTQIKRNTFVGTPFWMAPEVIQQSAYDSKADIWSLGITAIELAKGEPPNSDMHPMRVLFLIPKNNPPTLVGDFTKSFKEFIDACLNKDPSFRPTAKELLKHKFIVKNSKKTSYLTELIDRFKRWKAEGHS
Nature of the assay: DSF Tm panel. Format: binding. The note with it: 10 μM compound.

Assay [11] concerns the target T11, MELKA (Homo sapiens, UniProt Q14680).
T11 construct: purchased in-house DSF kinase panel (SGC-style construct names; the trailing letter is the construct ID)
Description: DSF Tm panel. It counts as binding. Particulars: 10 μM compound.

In assay [12] the target is T12, DMPK1A (Homo sapiens, UniProt Q09013).
T12 construct: purchased in-house DSF kinase panel (SGC-style construct names; the trailing letter is the construct ID)
T12 sequence (Q09013 1-629): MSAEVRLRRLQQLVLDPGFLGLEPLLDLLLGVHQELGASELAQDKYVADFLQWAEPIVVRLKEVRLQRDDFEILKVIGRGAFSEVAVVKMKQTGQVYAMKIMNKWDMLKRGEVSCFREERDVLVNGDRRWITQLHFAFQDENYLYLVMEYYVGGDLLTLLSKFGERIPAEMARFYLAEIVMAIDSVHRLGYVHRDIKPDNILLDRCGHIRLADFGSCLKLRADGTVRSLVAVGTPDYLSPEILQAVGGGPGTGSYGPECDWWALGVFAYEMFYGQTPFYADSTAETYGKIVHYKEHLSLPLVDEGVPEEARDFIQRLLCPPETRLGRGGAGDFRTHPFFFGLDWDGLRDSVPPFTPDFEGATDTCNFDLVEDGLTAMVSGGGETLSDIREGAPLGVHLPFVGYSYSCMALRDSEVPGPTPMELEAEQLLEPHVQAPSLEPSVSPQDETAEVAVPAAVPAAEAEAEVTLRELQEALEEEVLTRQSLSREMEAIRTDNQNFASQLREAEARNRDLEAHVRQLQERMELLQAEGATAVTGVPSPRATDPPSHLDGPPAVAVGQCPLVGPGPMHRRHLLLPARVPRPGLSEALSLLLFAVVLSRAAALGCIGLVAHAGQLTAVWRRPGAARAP
Nature of the assay: DSF Tm panel. It counts as binding. Particulars: 10 μM compound.

For assay [13], the target named is SLK (Homo sapiens, UniProt Q9H2G2). Nature of the assay: PhosphoSens in vitro activity assay. It counts as biochemical. The note with it: ATP 150 μM.

T1 sequence (Q2M2I8 27-365): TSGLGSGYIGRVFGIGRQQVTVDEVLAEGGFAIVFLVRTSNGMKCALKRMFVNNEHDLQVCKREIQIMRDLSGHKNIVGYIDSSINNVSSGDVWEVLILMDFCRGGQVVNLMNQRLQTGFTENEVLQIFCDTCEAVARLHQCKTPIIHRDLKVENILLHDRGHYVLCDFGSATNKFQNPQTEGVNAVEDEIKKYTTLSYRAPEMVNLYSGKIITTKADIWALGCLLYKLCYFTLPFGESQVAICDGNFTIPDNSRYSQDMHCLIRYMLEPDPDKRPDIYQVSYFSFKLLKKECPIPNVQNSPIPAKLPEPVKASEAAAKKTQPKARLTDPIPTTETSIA
T11 sequence (Q14680 1-340): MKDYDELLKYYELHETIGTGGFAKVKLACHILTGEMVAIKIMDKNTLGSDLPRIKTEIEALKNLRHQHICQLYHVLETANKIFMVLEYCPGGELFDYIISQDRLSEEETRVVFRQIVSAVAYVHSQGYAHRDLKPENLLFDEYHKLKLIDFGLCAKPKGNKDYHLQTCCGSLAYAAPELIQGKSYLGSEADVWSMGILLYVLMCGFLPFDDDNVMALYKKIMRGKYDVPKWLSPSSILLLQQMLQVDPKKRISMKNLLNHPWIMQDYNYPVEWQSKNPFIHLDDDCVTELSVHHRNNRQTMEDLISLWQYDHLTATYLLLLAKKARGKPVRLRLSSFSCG
T2 sequence (Q00536 163-478): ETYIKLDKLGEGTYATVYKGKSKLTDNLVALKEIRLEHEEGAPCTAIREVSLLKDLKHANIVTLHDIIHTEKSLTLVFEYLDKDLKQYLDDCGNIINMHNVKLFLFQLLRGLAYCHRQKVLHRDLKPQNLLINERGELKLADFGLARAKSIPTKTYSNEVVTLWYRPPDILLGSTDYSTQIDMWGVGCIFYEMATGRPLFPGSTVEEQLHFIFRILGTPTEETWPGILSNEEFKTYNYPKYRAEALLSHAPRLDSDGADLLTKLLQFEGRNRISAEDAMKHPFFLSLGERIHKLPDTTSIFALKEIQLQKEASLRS

As usually defined, the ΔTm is the shift of the melting midpoint relative to a reference. The term IC50 denotes the concentration at which inhibition is half-maximal. A higher IC50 goes with a need for much substance. `O=C(NCc1ccc(Cl)cc1)Nc1ccc2cc1OCCOCCNc1ccn3ncc-2c3n1` [compound 19]: the shift in melting temperature (ΔTm) at 10 µM came to 7.1 °C in assay [1]; 1.3 °C in assay [2]; 1.8 °C in [3]; 0.1 °C in assay [4]; 4.4 °C in assay [5]; 2.1 °C in assay [6]. Also, the ΔTm at 10 µM in [7] is 10 °C; in assay [8], -0.2 °C; in [9], 0.7 °C; in assay [10], 1.1 °C; in assay [11] it was 1.5 °C; in [12] it was 0.3 °C. Besides, in assay [13], the IC50 came to 7.16 ± 1.12 µM.

`O=C(NCc1ccc(Cl)cc1Cl)Nc1ccc2cc1OCCOCCNc1ccn3ncc-2c3n1` [compound 20]: the shift in melting temperature (ΔTm) at 10 µM was 6.3 °C in assay [1]; 1.1 °C in assay [2]; 2.2 °C in assay [3]; 0.8 °C in assay [4]; 2.4 °C in [5]; 2.1 °C in [6]. The ΔTm at 10 µM in assay [7] worked out at 9.6 °C; in assay [8] it was 0.7 °C; in assay [9], 0 °C; in [10], 0.5 °C; in [11] it was 0.9 °C; in assay [12], 0.7 °C. Further, the IC50 in assay [13] came out at 7.44 ± 1.64 µM.

Regarding `O=C(NCc1ccc(Cl)cc1F)Nc1ccc2cc1OCCOCCNc1ccn3ncc-2c3n1` [compound 21], the ΔTm at 10 µM was found to be 7.1 °C in [1]; 1.1 °C in assay [2]; 2.3 °C in [3]; 1.2 °C in assay [4]; 3.9 °C in [5]; 2.8 °C in [6]. Moreover, the ΔTm at 10 µM in assay [7] is 7.3 °C; in [8], 0.7 °C; in assay [9], 0.6 °C; in [10] it was 1.1 °C; in assay [11], 2.4 °C; in assay [12] it was 0.2 °C. For the same molecule, in assay [13], half-maximal inhibition (IC50) was put at 8.88 ± 1.41 µM.

On to `Cc1cc(Cl)ccc1CNC(=O)Nc1ccc2cc1OCCOCCNc1ccn3ncc-2c3n1` [compound 23], for which the ΔTm at 10 µM came to 6.5 °C in assay [1]; 2.8 °C in assay [2]; 1.7 °C in assay [3]; 0.6 °C in assay [4]; 2.8 °C in [5]; 2.6 °C in [6]. The ΔTm at 10 µM stood at 11.1 °C in assay [7]; 0.9 °C in assay [8]; 0.3 °C in [9]; 2.1 °C in assay [10]; 1.1 °C in [11]; 0.5 °C in assay [12]. In addition, in [13], it took 3.43 ± 1.12 µM to reach half-maximal inhibition (IC50).

In the case of `Cc1cc(Br)ccc1CNC(=O)Nc1ccc2cc1OCCOCCNc1ccn3ncc-2c3n1` [compound 24], the ΔTm at 10 µM in assay [1] was 4 °C; in assay [2], 0.7 °C; in assay [3], -0.4 °C; in [4], 0.6 °C; in [5] it was 5.9 °C; in assay [6], 1 °C. Also, the thermal shift (ΔTm) at 10 µM was 8.3 °C in assay [7]; -0.4 °C in assay [8]; -4.3 °C in [9]; 1.2 °C in assay [10]; 0 °C in assay [11]; 0.3 °C in [12]. In assay [13], this molecule displayed a half-inhibitory concentration (IC50) of 5.35 ± 1.36 µM.

Consider `Cc1ccc(F)cc1CNC(=O)Nc1ccc2cc1OCCOCCNc1ccn3ncc-2c3n1` [compound 26], for which the ΔTm at 10 µM in assay [1] worked out at 5 °C; in assay [2], 1 °C; in assay [3], 0.6 °C; in [4], 0.3 °C; in [5], 6 °C; in [6], 2.1 °C. Moreover, the ΔTm at 10 µM in [7] was 9.2 °C; in assay [8], -0.4 °C; in assay [9], -2 °C; in assay [10], 0.8 °C; in assay [11], 1.1 °C; in assay [12], 0.3 °C. In addition, the IC50 in [13] was 9.8 ± 2.41 µM.

For the molecule `O=C(NCc1ccccc1C(F)(F)F)Nc1ccc2cc1OCCOCCNc1ccn3ncc-2c3n1` [compound 27], the ΔTm at 10 µM in [1] was 3.9 °C; in [2] it was 1.1 °C; in assay [3], 2.4 °C; in [4], 0.7 °C; in assay [5], 5.4 °C; in assay [6], 2.3 °C. Besides, the ΔTm at 10 µM is 10.2 °C in assay [7]; -0.4 °C in assay [8]; -3.4 °C in [9]; 1.9 °C in assay [10]; 0.4 °C in [11]; 0.2 °C in assay [12]. Further, it took 2.74 ± 0.89 µM to reach half-maximal inhibition in [13] (IC50).

On to `COc1ccccc1CNC(=O)Nc1ccc2cc1OCCOCCNc1ccn3ncc-2c3n1` [compound 29], for which the ΔTm at 10 µM in [1] was 5.5 °C; in assay [2] it was 1 °C; in [3], 0.7 °C; in assay [4], 0.6 °C; in [5] it was 4.5 °C; in [6] it was 2.8 °C. For the same molecule, the ΔTm at 10 µM in [7] is 7.5 °C; in assay [8] it was -0.3 °C; in assay [9] it was -7.7 °C; in assay [10], 0.2 °C; in assay [11] it was 1 °C; in [12] it was 0.3 °C. Also, the midpoint of inhibition in [13], the IC50, lay at 17.1 ± 2.86 µM.

As for `COc1cccc(CNC(=O)Nc2ccc3cc2OCCOCCNc2ccn4ncc-3c4n2)c1` [compound 30], the ΔTm at 10 µM in assay [1] amounted to 6.3 °C; in assay [2] it was 1.3 °C; in assay [3], 1.5 °C; in [4], 0.6 °C; in assay [5] it was 4.7 °C; in [6], 2.5 °C. For the same molecule, the ΔTm at 10 µM in assay [7] is 7.1 °C; in [8], -0.2 °C; in assay [9], -5.1 °C; in [10], 0.3 °C; in assay [11] it was 1.3 °C; in [12], 0.4 °C. The same molecule registered a half-inhibitory concentration (IC50) in assay [13] above 20 µM.

For `COc1ccc(CNC(=O)Nc2ccc3cc2OCCOCCNc2ccn4ncc-3c4n2)cc1F` [compound 32], the ΔTm at 10 µM in assay [1] stood at 6.3 °C; in [2] it was 2 °C; in assay [3], 1.7 °C; in [4], 0.7 °C; in assay [5], 6 °C; in assay [6] it was 2.7 °C. In addition, the shift in melting temperature (ΔTm) at 10 µM in assay [7] is 7.6 °C; in [8], -0.4 °C; in assay [9], -6.4 °C; in [10], 1.2 °C; in [11], 1.4 °C; in [12], 0.6 °C. In assay [13], this molecule had a 50% inhibitory concentration (IC50) of 11 ± 2.68 µM.
